Reference: publication PMC10648944, “Fumagillin inhibits growth of the enteric protozoan parasite Entamoeba histolytica by covalently binding to and selectively inhibiting methionine aminopeptidase 2” (Antimicrobial Agents and Chemotherapy, 2023)

T1: E. histolytica methionine aminopeptidase 2 (EhMetAP2) (Entamoeba histolytica, UniProt C4LWW4)
T1 construct: gene EHI_126880; full-length, N-terminal GST fusion (GST-EhMetAP2) expressed in S. cerevisiae
T1 sequence (C4LWW4 1-413): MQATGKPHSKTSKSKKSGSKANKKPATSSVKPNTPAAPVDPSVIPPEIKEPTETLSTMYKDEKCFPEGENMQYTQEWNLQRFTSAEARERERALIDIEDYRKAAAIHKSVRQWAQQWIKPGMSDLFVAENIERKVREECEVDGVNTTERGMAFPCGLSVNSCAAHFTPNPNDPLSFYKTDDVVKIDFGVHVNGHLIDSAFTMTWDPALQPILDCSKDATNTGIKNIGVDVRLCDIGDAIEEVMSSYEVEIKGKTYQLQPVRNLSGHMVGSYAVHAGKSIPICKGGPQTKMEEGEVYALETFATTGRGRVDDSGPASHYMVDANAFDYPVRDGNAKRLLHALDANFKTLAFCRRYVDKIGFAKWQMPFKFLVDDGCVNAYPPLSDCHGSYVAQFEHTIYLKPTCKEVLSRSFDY

B1: E. histolytica methionine aminopeptidase 2 (EhMetAP2) (Entamoeba histolytica HM-1:IMSS) (protein)
chain: T1 sequence (C4LWW4 1-413)
notes: full-length, N-terminal GST fusion (GST-EhMetAP2) expressed in S. cerevisiae

Assays:
[1] = target: T1, E. histolytica methionine aminopeptidase 2 (EhMetAP2); test: fluorogenic Met-MCA aminopeptidase assay with purified GST-EhMetAP2, double-reciprocal plot; assay type: biochemical
[2] = substrate: CSCC[C@H](N)C(=O)Nc1ccc2c(C)cc(=O)oc2c1; test: fluorometric hydrolysis by purified GST-EhMetAP2; Km by end point assay; assay type: biochemical, Entamoeba histolytica; settings: Mn2+ / Mg2+ ([…] MnCl2, […] MgCl2 in the assay)

Molecule	Ki [1] [nM]	Km [2] [µM]
CO[C@@H]1[C@H](OC(=O)/C=C/C=C/C=C/C=C/C(=O)O)CC[C@]2(CO2)[C@H]1[C@@]1(C)O[C@@H]1CC=C(C)C [compound 1, fumagillin]	60 ± 33	–
B1	–	770 ± 40
